System: MV-4-11 cells
Test: Gene expression microarray analysis (Affymetrix PrimeView) and GSEA
Type: cell-based, human
Set-up: RFU PODN (11730768_x_at) / Fold change /veh PODN (11730768_x_at) / RFU LINC00158 (11744669_a_at) / Fold change /veh LINC00158 (11744669_a_at) / RFU DUSP10 (11751237_a_at) / Fold change /veh DUSP10 (11751237_a_at) / RFU ID3 (11757404_x_at) / Fold change /veh ID3 (11757404_x_at) / RFU PLEKHG5 (11737974_s_at) / Fold change /veh PLEKHG5 (11737974_s_at) / RFU LRRC4B (11730491_at) / Fold change /veh LRRC4B (11730491_at) / RFU GIMAP4 (11747438_a_at) / Fold change /veh GIMAP4 (11747438_a_at) / RFU KRT8 (11758183_x_at) / Fold change /veh KRT8 (11758183_x_at) / RFU CNN1 (11734310_a_at) / Fold change /veh CNN1 (11734310_a_at) / RFU VPS37D (11726825_at) / Fold change /veh VPS37D (11726825_at) / RFU C10orf10 (11716522_x_at) / Fold change /veh C10orf10 (11716522_x_at) / RFU KIR2DL2 /// KIR2DL4 /// KIR2DL5A /// KIR2DL5B /// KIR2DS1 /// KIR2DS2 /// KIR2DS3 /// KIR2DS4 /// KIR3DL3 /// KIR3DL3 /// KIR3DS1 (11738374_at) / Fold change /veh KIR2DL2 /// KIR2DL4 /// KIR2DL5A /// KIR2DL5B /// KIR2DS1 /// KIR2DS2 /// KIR2DS3 /// KIR2DS4 /// KIR3DL3 /// KIR3DL3 /// KIR3DS1 (11738374_at) / RFU C1QL1 (11718748_at) / Fold change /veh C1QL1 (11718748_at) / RFU TMPRSS4 (11747572_a_at) / Fold change /veh TMPRSS4 (11747572_a_at) / RFU HAMP (11756126_x_at) / Fold change /veh HAMP (11756126_x_at) / RFU RNFT2 (11725882_a_at) / Fold change /veh RNFT2 (11725882_a_at) / RFU NR4A2 (11747474_a_at) / Fold change /veh NR4A2 (11747474_a_at) / RFU ABCC12 (11746883_a_at) / Fold change /veh ABCC12 (11746883_a_at) / RFU TMEM136 (11760407_x_at) / Fold change /veh TMEM136 (11760407_x_at) / RFU CLDN22 /// WWC2 (11732394_at) / Fold change /veh CLDN22 /// WWC2 (11732394_at) / RFU HLA-DPB1 (11760878_x_at) / Fold change /veh HLA-DPB1 (11760878_x_at) / RFU SPINT1 (11716480_a_at) / Fold change /veh SPINT1 (11716480_a_at) / RFU GAP43 (11754022_s_at) / Fold change /veh GAP43 (11754022_s_at) / RFU A4GNT (11735810_at) / Fold change /veh A4GNT (11735810_at) / RFU PRB3 (11715151_x_at) / Fold change /veh PRB3 (11715151_x_at) / RFU TUBB4B (11761932_at) / Fold change /veh TUBB4B (11761932_at) / RFU CAPN14 (11732068_a_at) / Fold change /veh CAPN14 (11732068_a_at) / RFU TMCC2 (11721928_a_at) / Fold change /veh TMCC2 (11721928_a_at) / RFU IRGQ (11745062_a_at) / Fold change /veh IRGQ (11745062_a_at) / RFU FAM174B (11720279_a_at) / Fold change /veh FAM174B (11720279_a_at) / RFU TMPRSS4 (11748680_a_at) / Fold change /veh TMPRSS4 (11748680_a_at) / RFU FAM212B (11763350_a_at) / Fold change /veh FAM212B (11763350_a_at) / RFU PLEKHG5 (11743358_a_at) / Fold change /veh PLEKHG5 (11743358_a_at) / RFU ZSCAN30 (11745921_a_at) / Fold change /veh ZSCAN30 (11745921_a_at) / RFU CMKLR1 (11741424_a_at) / Fold change /veh CMKLR1 (11741424_a_at) / RFU LOC101060620 /// MAPK8IP1 (11723275_at) / Fold change /veh LOC101060620 /// MAPK8IP1 (11723275_at) / RFU SPTSSB (11747773_x_at) / Fold change /veh SPTSSB (11747773_x_at) / RFU PRSS12 (11739890_at) / Fold change /veh PRSS12 (11739890_at) / RFU BIN1 (11741810_x_at) / Fold change /veh BIN1 (11741810_x_at) / RFU WNT11 (11732464_a_at) / Fold change /veh WNT11 (11732464_a_at) / RFU C10orf10 (11716521_a_at) / Fold change /veh C10orf10 (11716521_a_at) / RFU C5orf56 (11738089_at) / Fold change /veh C5orf56 (11738089_at) / RFU CYB561 (11721691_x_at) / Fold change /veh CYB561 (11721691_x_at) / RFU ANKRD19P (11752326_a_at) / Fold change /veh ANKRD19P (11752326_a_at) / RFU OR2T12 /// OR2T33 /// OR2T8 (11738714_s_at) / Fold change /veh OR2T12 /// OR2T33 /// OR2T8 (11738714_s_at) / RFU VCAN (11748164_a_at) / Fold change /veh VCAN (11748164_a_at) / RFU JSRP1 (11732532_at) / Fold change /veh JSRP1 (11732532_at) / RFU KRTAP10-11 (11738290_x_at) / Fold change /veh KRTAP10-11 (11738290_x_at) / RFU MYO3A (11730013_a_at) / Fold change /veh MYO3A (11730013_a_at) / RFU EBF3 (11725865_a_at) / Fold change /veh EBF3 (11725865_a_at) / RFU CAMK2N1 (11719241_x_at) / Fold change /veh CAMK2N1 (11719241_x_at) / RFU C5orf56 (11738088_a_at) / Fold change /veh C5orf56 (11738088_a_at) / RFU OLFML3 (11715873_a_at) / Fold change /veh OLFML3 (11715873_a_at) / RFU LOC100653217 /// NTM (11731650_a_at) / Fold change /veh LOC100653217 /// NTM (11731650_a_at) / RFU MAPK11 (11762145_a_at) / Fold change /veh MAPK11 (11762145_a_at) / RFU FIZ1 (11724087_x_at) / Fold change /veh FIZ1 (11724087_x_at) / RFU OASL (11726364_x_at) / Fold change /veh OASL (11726364_x_at) / RFU SOX15 (11748057_x_at) / Fold change /veh SOX15 (11748057_x_at) / RFU CD79A (11719716_a_at) / Fold change /veh CD79A (11719716_a_at) / RFU HIST1H1D (11736915_at) / Fold change /veh HIST1H1D (11736915_at) / RFU CASKIN2 (11723855_a_at) / Fold change /veh CASKIN2 (11723855_a_at) / RFU LOC730098 (11760151_x_at) / Fold change /veh LOC730098 (11760151_x_at) / RFU OR4N2 (11742367_at) / Fold change /veh OR4N2 (11742367_at) / RFU PRRT2 (11749266_a_at) / Fold change /veh PRRT2 (11749266_a_at) / RFU SNX32 (11753110_a_at) / Fold change /veh SNX32 (11753110_a_at) / RFU CDHR5 (11726645_a_at) / Fold change /veh CDHR5 (11726645_a_at) / RFU RCAN1 (11760418_a_at) / Fold change /veh RCAN1 (11760418_a_at) / RFU FAM167A (11723789_a_at) / Fold change /veh FAM167A (11723789_a_at) / RFU FAM26E (11764081_at) / Fold change /veh FAM26E (11764081_at) / RFU ISYNA1 (11749810_s_at) / Fold change /veh ISYNA1 (11749810_s_at) / RFU ACY1 (11761880_at) / Fold change /veh ACY1 (11761880_at) / RFU 11764098_at / Fold change /veh 11764098_at / RFU SAMD14 (11745864_x_at) / Fold change /veh SAMD14 (11745864_x_at) / RFU NPB (11741838_a_at) / Fold change /veh NPB (11741838_a_at) / RFU TMPRSS6 (11731388_a_at) / Fold change /veh TMPRSS6 (11731388_a_at) / RFU KRTAP10-2 (11738614_at) / Fold change /veh KRTAP10-2 (11738614_at) / RFU ARHGAP8 /// PRR5-ARHGAP8 (11727945_x_at) / Fold change /veh ARHGAP8 /// PRR5-ARHGAP8 (11727945_x_at) / RFU KRTAP5-7 /// NADSYN1 (11734609_at) / Fold change /veh KRTAP5-7 /// NADSYN1 (11734609_at) / RFU RASL12 (11751679_a_at) / Fold change /veh RASL12 (11751679_a_at) / RFU CDKN2B (11736163_a_at) / Fold change /veh CDKN2B (11736163_a_at) / RFU PRF1 (11729649_at) / Fold change /veh PRF1 (11729649_at) / RFU, ZNF638 /// ZNF638-IT1 / Fold change vs veh, ZNF638 /// ZNF638-IT1 / RFU, PANK3 / Fold change vs veh, PANK3 / RFU, SH3YL1 / Fold change vs veh, SH3YL1 / RFU, ZEB2 / Fold change vs veh, ZEB2 / RFU, NRIP1 / Fold change vs veh, NRIP1 / RFU, PTTG1IP / Fold change vs veh, PTTG1IP / RFU, CAPN2 / Fold change vs veh, CAPN2 / RFU, MED14 / Fold change vs veh, MED14 / RFU, SNORA58 / Fold change vs veh, SNORA58 / RFU, C1orf63 / Fold change vs veh, C1orf63 / RFU, LRRFIP1 / Fold change vs veh, LRRFIP1 / RFU, NDUFAF7 / Fold change vs veh, NDUFAF7 / RFU, SLC12A2 / Fold change vs veh, SLC12A2 / RFU, IBTK / Fold change vs veh, IBTK / RFU, ESF1 / Fold change vs veh, ESF1 / Fold change vs veh, TMEM50B / RFU, TAOK1 / Fold change vs veh, TAOK1 / RFU, ACBD3 / Fold change vs veh, ACBD3 / RFU, TMA16 / Fold change vs veh, TMA16 / RFU, RWDD3 / Fold change vs veh, RWDD3 / RFU, BCAT1 / Fold change vs veh, BCAT1 / RFU, EDEM3 / Fold change vs veh, EDEM3 / RFU, TMEM33 / Fold change vs veh, TMEM33 / RFU, WDR75 / Fold change vs veh, WDR75 / RFU, AHCTF1 / Fold change vs veh, AHCTF1 / RFU, TFRC / Fold change vs veh, TFRC / RFU, ZDHHC17 / Fold change vs veh, ZDHHC17 / RFU, NOM1 / Fold change vs veh, NOM1 / RFU, ARL8B / Fold change vs veh, ARL8B / RFU, ZBTB11 / Fold change vs veh, ZBTB11 / RFU, TAMM41 / Fold change vs veh, TAMM41 / RFU, KIAA1704 /// LOC100996395 / Fold change vs veh, KIAA1704 /// LOC100996395 / RFU, ING1 / Fold change vs veh, ING1 / RFU, TRMT61B / Fold change vs veh, TRMT61B / RFU, FUBP3 / Fold change vs veh, FUBP3 / RFU, TP53 / Fold change vs veh, TP53 / RFU, TNKS2 / Fold change vs veh, TNKS2 / RFU, ZFP14 / Fold change vs veh, ZFP14 / RFU, ACTR2 / Fold change vs veh, ACTR2 / RFU, PPP3R1 / Fold change vs veh, PPP3R1 / RFU, PIK3R1 / Fold change vs veh, PIK3R1 / RFU, HNRNPA1 / Fold change vs veh, HNRNPA1 / RFU, RNF170 / Fold change vs veh, RNF170 / RFU, ZNF28 / Fold change vs veh, ZNF28 / RFU, RNGTT / Fold change vs veh, RNGTT / RFU, OGT / Fold change vs veh, OGT / RFU, BRD1 / Fold change vs veh, BRD1 / RFU, MARS / Fold change vs veh, MARS / RFU, ZNF655 / Fold change vs veh, ZNF655 / RFU, FAHD1 / Fold change vs veh, FAHD1 / RFU, BDP1 / Fold change vs veh, BDP1 / RFU, LRRCC1 / Fold change vs veh, LRRCC1 / RFU, ARID1A / Fold change vs veh, ARID1A / RFU, ZNF146 / Fold change vs veh, ZNF146 / RFU, ZNF330 / Fold change vs veh, ZNF330 / RFU, GPN3 / Fold change vs veh, GPN3 / RFU, C9orf123 / Fold change vs veh, C9orf123 / RFU, N4BP2L2 / Fold change vs veh, N4BP2L2 / RFU, ARFIP1 / Fold change vs veh, ARFIP1 / RFU, FAM179B / Fold change vs veh, FAM179B / RFU, BCL10 / Fold change vs veh, BCL10 / RFU, UHRF1BP1L / Fold change vs veh, UHRF1BP1L / RFU, BET1 / Fold change vs veh, BET1 / RFU, CNOT2 / Fold change vs veh, CNOT2 / RFU, ZNF268 / Fold change vs veh, ZNF268 / Fold change vs veh, ZNF507 / RFU, DGCR2 / Fold change vs veh, DGCR2 / RFU, WDSUB1 / Fold change vs veh, WDSUB1 / Fold change vs veh, HSP90B1 /// MIR3652 / RFU, ADSS / Fold change vs veh, ADSS / RFU, GK / Fold change vs veh, GK / RFU, ZNF148 / Fold change vs veh, ZNF148 / RFU, TAF9 / Fold change vs veh, TAF9 / RFU, SLC1A5 / Fold change vs veh, SLC1A5 / RFU, SLMO2 / Fold change vs veh, SLMO2 / RFU, ABCC4 / Fold change vs veh, ABCC4 / RFU, LOC101060439 /// RAP1B / Fold change vs veh, LOC101060439 /// RAP1B / RFU, RFX7 / Fold change vs veh, RFX7 / RFU, GTPBP10 / Fold change vs veh, GTPBP10 / RFU, CNEP1R1 / Fold change vs veh, CNEP1R1 / RFU, BIVM-ERCC5 /// ERCC5 / Fold change vs veh, BIVM-ERCC5 /// ERCC5 / RFU, ILF3 / Fold change vs veh, ILF3 / RFU 11762660_at / Fold change /veh 11762660_at / RFU VCAN (11757783_s_at) / Fold change /veh VCAN (11757783_s_at) / RFU DDX43 (11728927_at) / Fold change /veh DDX43 (11728927_at) / RFU KRT8 (11758188_x_at) / Fold change /veh KRT8 (11758188_x_at) / RFU NKD1 (11759106_at) / Fold change /veh NKD1 (11759106_at) / RFU SRD5A1 (11742802_a_at) / Fold change /veh SRD5A1 (11742802_a_at) / RFU TPSAB1 /// TPSB2 (11721975_s_at) / Fold change /veh TPSAB1 /// TPSB2 (11721975_s_at) / RFU GSTM3 (11746129_a_at) / Fold change /veh GSTM3 (11746129_a_at) / RFU IL23R (11737362_x_at) / Fold change /veh IL23R (11737362_x_at) / RFU TMEM51 (11727254_a_at) / Fold change /veh TMEM51 (11727254_a_at) / RFU PIWIL2 (11732686_x_at) / Fold change /veh PIWIL2 (11732686_x_at) / RFU ORM1 (11744905_x_at) / Fold change /veh ORM1 (11744905_x_at) / RFU CCDC152 (11743942_at) / Fold change /veh CCDC152 (11743942_at) / RFU ECM1 (11717891_a_at) / Fold change /veh ECM1 (11717891_a_at) / RFU IL23R (11748794_a_at) / Fold change /veh IL23R (11748794_a_at) / RFU TNFAIP8L3 (11732012_x_at) / Fold change /veh TNFAIP8L3 (11732012_x_at) / RFU MBOAT4 (11741988_at) / Fold change /veh MBOAT4 (11741988_at) / RFU 11764193_at / Fold change /veh 11764193_at / RFU TMEM53 (11763286_at) / Fold change /veh TMEM53 (11763286_at) / RFU MAGEB2 (11727129_at) / Fold change /veh MAGEB2 (11727129_at) / RFU TMEM200A (11744735_a_at) / Fold change /veh TMEM200A (11744735_a_at) / RFU CCDC152 (11751479_a_at) / Fold change /veh CCDC152 (11751479_a_at) / RFU FAM211A (11726209_a_at) / Fold change /veh FAM211A (11726209_a_at) / RFU RGS16 (11746705_a_at) / Fold change /veh RGS16 (11746705_a_at) / RFU VCAN (11755009_s_at) / Fold change /veh VCAN (11755009_s_at) / RFU RHOB (11743442_s_at) / Fold change /veh RHOB (11743442_s_at) / RFU RGS16 (11720943_a_at) / Fold change /veh RGS16 (11720943_a_at) / RFU RGS16 (11720944_at) / Fold change /veh RGS16 (11720944_at) / RFU, VPS4B / Fold change vs veh, VPS4B / RFU, CREB1 / Fold change vs veh, CREB1 / RFU, DNAJC13 / Fold change vs veh, DNAJC13 / RFU, GNAQ / Fold change vs veh, GNAQ / RFU, CDK5R1 / Fold change vs veh, CDK5R1 / RFU, ZRANB3 / Fold change vs veh, ZRANB3 / RFU, CUL4A / Fold change vs veh, CUL4A / RFU, CCNY / Fold change vs veh, CCNY / RFU, UFL1 / Fold change vs veh, UFL1 / RFU, COG3 / Fold change vs veh, COG3 / RFU, DIAPH2 / Fold change vs veh, DIAPH2 / RFU, SKA2 / Fold change vs veh, SKA2 / RFU, AFF3 / Fold change vs veh, AFF3 / RFU, LMF1 / Fold change vs veh, LMF1 / RFU, IPO11 / Fold change vs veh, IPO11 / RFU, DFFB / Fold change vs veh, DFFB / RFU, FOXP1 / Fold change vs veh, FOXP1 / RFU, CARD8 / Fold change vs veh, CARD8 / RFU, STRN3 / Fold change vs veh, STRN3 / RFU, ADK / Fold change vs veh, ADK / RFU, RASSF2 / Fold change vs veh, RASSF2 / RFU, WIPF1 / Fold change vs veh, WIPF1 / RFU, LARP1B / Fold change vs veh, LARP1B / RFU, RASA1 / Fold change vs veh, RASA1 / RFU, RB1 / Fold change vs veh, RB1 / RFU, PPFIA1 / Fold change vs veh, PPFIA1 / RFU, MAT2A / Fold change vs veh, MAT2A / RFU, CCT5 / Fold change vs veh, CCT5 / RFU, WDR92 / Fold change vs veh, WDR92 / RFU, CUX1 / Fold change vs veh, CUX1 / RFU, TTC7A / Fold change vs veh, TTC7A / RFU, TMEM135 / Fold change vs veh, TMEM135 / RFU, DEPTOR / Fold change vs veh, DEPTOR / RFU, CPM / Fold change vs veh, CPM / RFU, DNAJB6 / Fold change vs veh, DNAJB6 / RFU, CACNA2D3 / Fold change vs veh, CACNA2D3 / RFU, DTX4 / Fold change vs veh, DTX4 / RFU, TFCP2 / Fold change vs veh, TFCP2 / RFU, GMCL1 /// GMCL1P1 / Fold change vs veh, GMCL1 /// GMCL1P1 / RFU, AEBP2 / Fold change vs veh, AEBP2 / RFU, SNHG1 /// SNORD22 /// SNORD25 /// SNORD26 /// SNORD27 /// SNORD28 /// SNORD29 /// SNORD31 / Fold change vs veh, SNHG1 /// SNORD22 /// SNORD25 /// SNORD26 /// SNORD27 /// SNORD28 /// SNORD29 /// SNORD31 / Fold change (Aza/veh), C12orf56 (ProbeSet 11735607_a_at) / Fold change (ACY-1035/veh), C12orf56 (ProbeSet 11735607_a_at) / Fold change (Aza/veh), FGFR1OP (ProbeSet 11751329_s_at) / Fold change (ACY-1035/veh), FGFR1OP (ProbeSet 11751329_s_at) / Fold change (Aza/veh), VPS36 (ProbeSet 11739960_a_at) / Fold change (ACY-1035/veh), VPS36 (ProbeSet 11739960_a_at) / RFU SYPL1 (11715823_x_at) / Fold change /veh SYPL1 (11715823_x_at) / RFU IGFBP7 (11715501_s_at) / Fold change /veh IGFBP7 (11715501_s_at) / RFU REEP3 (11722064_at) / Fold change /veh REEP3 (11722064_at) / RFU IGLL1 (11728026_x_at) / Fold change /veh IGLL1 (11728026_x_at): dose or concentration left out as unconfirmed
Conditions: MV-4-11 cells, 48 hours

Nc1ccc(-c2cccs2)cc1NC(=O)c1ccc2c(c1)cc(C1CC1)n2CCN1CCOCC1 [ACY-1035]
RFU WNT11 (11732464_a_at): 8.64 RFU

Reference: article PMC5218480 (PLoS ONE, 2017)
